# Source: US10918891B2, “Cosmetic treatment method for the skin” (SYNTIVIA, priority 2016, dated 2021)
# Marks after values point to notes of the source that are not given here.
# What was measured:
# [1] = test system: NativeSkin® skin explants (Genoskin); assay: Breaks in the DNA (γ-H2AX marking) of NativeSkin skin explant ex vivo after UVA irradiation; type: cell-based, human; details: composition 0.9 mmol/L topical, 60 J/cm^2 UVA every day for 3 days, n=10 images, FIG. 7
# Method: (§1) The test was carried out on NativeSkin® skin explants (Genoskin), a biopsy of skin bathed in a solid, nourishing matrix while its epidermal surface is preserved in contact with the air. The biopsy is firmly anchored in the matrix and sealed in order to prevent any lateral diffusion of formulation intended for topical application.
# (§2) The study was carried out on a donor (phototype 2) under the following conditions.
# (§3) The compounds tested are implemented in a composition containing them at 0.9 mmol/L in a mixture of Carbopol® (0.5% p/p), DMSO (0.1% p/p) and H2O (qsp 100%).
# (§4) The samples are irradiated at 60 J/cm^2 UVA every day for 3 days. A treatment is carried out for 24 h before the irradiation, by application of the composition tested onto the sample (deposition of 40 μl of composition onto the stratum corneum), then a post-treatment of 24 h after the irradiation, in the same manner.
# (§5) A Control of the sample of skin non-irradiated and a Control of the sample of skin irradiated are also carried out, both with application of the vehicle alone (0.5% Carbopol®, 0.1% DMSO, H2O). The Control of the non-irradiated sample of skin is introduced into the irradiator in a sheet of aluminium, in such a way as to protect it against UVs.
# (§6) The samples are sampled, cut (according to the conventional method of cryo-sectioning implementing paraffin and freezing) and fixed in 1 ml of formalin for 24 h.
# (§7) The explants are then included in paraffin and sections of 5 μm are made.
# The slides obtained are also marked by immunohistochemistry with the biomarker γ-H2Ax.
# (§8) The analysis of the marking is carried out with a DM5000B fluorescence microscope (Leica Microsystems) and 10 images are acquired for each sample.
# For the marking with γ-H2Ax, for each image, the total number of nuclei is detected with 4′,6-diamidino-2-phenylindole (dapi). In the same image, the number of nuclei having the marking is quantified. The ratio of the number of positive nuclei, multiplied by 100, to the number of total nuclei, is calculated, in order to obtain a percentage (=(positive nuclei*100)/total nuclei), n=10 per sample.
# A statistical analysis is carried out with a student's test by comparing the samples to the control (p value[…], p value<0.05**, p value<0.005***, ns not significant).
# [2] = test system: NativeSkin® skin explants (Genoskin); assay: Histological analysis (haematoxylin/eosin) of NativeSkin skin explant ex vivo after UVA irradiation; type: cell-based, human; details: composition 0.9 mmol/L topical, 60 J/cm^2 UVA every day for 3 days, FIG. 5
# Method: as §1, §2, §3, §4, §5, §6, §7
# The slides are then coloured with haematoxylin (basic compound marking the nuclei) and eosin (acidic compound marking the conjunctive tissue).
# as §8
# [3] = test system: ELN (Elastin); assay: Elastin immunofluorescence on human skin explants after repeated UVA irradiation; type: cell-based; details: skin explant, (Ia) 100 ppm
# Method: In these examples, the protective properties of the compound (Ia) against the damage caused to the DNA and to the extracellular matrix by repeated UVA irradiation, are measured on explants of human skin (NATIVESKIN, Genoskin).
# Upon reception of the explants, the latter are topically coated with Carbopol® (Lubrizol)+DMSO for the non-UVA control (CTL without stress) and for the control with stress by UVAs (CTL UVA), and with Carbopol®+compound (Ia) at 100 ppm for the test.
# Over three days, the cells are subjected to three stresses with UVAs at a rate of 50 joules per square centimetre.
# The first irradiation takes place 24 hours after the treatments. The products are present before, during and after the irradiation. The control without stress is wrapped in aluminium and also placed in the irradiator.
# During the irradiation, the explants inserted are disposed in a petri dish with PBS. Fresh medium (Genoskin Culture medium) is added after the irradiation.
# After the third day of irradiation, the explants are cultivated for 24 hours, then collected and fixed for 48 hours in formalin (Sigma). The samples are included in paraffin and cut.
# Marking of the protein elastin is carried out by immunofluorescence on a paraffin section.
# The samples are prepared for the fluorescent marking. […]
# The sections are mounted on a slide and the fluorescence is quantified using a microscope (Leica DM5000B).
# [4] = test system: NHDF cells; assay: DNA double-strand breaks (γ-H2AX) induced by cigarette extract in NHDF; type: cell-based, human; details: (Ia) 10 ppm pretreatment 24 h and treatment 24 h, cigarette extract 1/50, Control 6441, Cigarette extract 11404
# Method: (§9) The cells used for this example are normal human Fibroblasts (NHDF) and normal human epidermal Keratinocytes (NHEK).
# The cells are cultured at the concentration of 3000 cells per well of 96-well plates in the presence of standard culture medium for NHDF or NHEK (for 24 hours, 37° C., 5% CO2).
# After pretreatment of the cells with the compound (Ia) at 10 ppm for 24 hours, the cells are treated with the cigarette extract diluted to 1/50° with or without compound (Ia) at 10 ppm for 24 hours. […].
# After washing, the samples are then placed in the presence of DAPI for 10 min in order to mark the nuclei, then rinsed once again. The marked proteins are observed and quantified with an automated fluorescence microscope (ArrayScan® (Cellomics®)). The cells treated by the compound (Ia) are then compared to the untreated cells or to the cells only exposed to the cigarette extract.
# [5] = test system: NHDF cells; assay: Cellular viability (WST1) of NHDF exposed to cigarette extract; type: cell-based, human; details: (Ia) 10 ppm pretreatment 24 h and treatment 24 h; cigarette extract diluted 1/50; WST1, 450 nm; Control 1.618, Cigarette extract 1.357
# Method: as §9
# A cigarette extract is prepared using a laboratory device allowing the sucking up of cigarette smoke via a suction system, and the controlled bubbling of this cigarette smoke into the solution studied, which is then filtered on a 0.22 μm filter made of Polyether sulfone (PES).
# The cells are cultured at the concentration of 7000 cells per well of 96-well plates (NHDF) or 8000 cells per well (NHEK), in the presence of standard culture medium for NHDF or NHEK (for 24 h 37° C., 5% CO2).
# After pretreatment of the cells with the compound (Ia) at 10 ppm for 24 h the cells are treated with the cigarette extract diluted to 1/50th in the culture medium with or without the compound (Ia) at 10 ppm for 24 h. The absorbance is read a first time at […] (Multiskan®).
# Then, 10 μl of WST1 (Roche) are introduced into the medium and the cells are incubated for 3 hours.
# The absorbance at 450 nm is measured after the addition of WST1 (Multiskan®) and the results obtained, in terms of cellular viability, are shown in tables 11 and 12 below. The treated cells (Cigarette extract+(Ia)) are compared to the untreated cells (Control) or to the cells having only undergone exposure to the cigarette extract (Cigarette extract).
smiles,measurement,setting,value
Cc1ncc(CO)c(CNC(=O)/C=C/c2ccc(O)c(O)c2)c1O [Compound (Ia)],"percentage of nuclei positive for marking with γ-H2AX, compared with controls",[1],clearly reduced with respect to the irradiated control sample
same,Morphology of the epidermis after UVA irradiation (histological analysis),[2],totally protected
same,Average fluorescence intensity of the marking ELN (AU),"[3]; CTL UVA 145.9, CTL without stress 160.4",182.4 AU
same,Cells positive for ELN based on 100%,"[3]; relative to CTL without stress, CTL UVA −9%",+14%
same,Double-strand breaks of the DNA for NHDF (AU),[4],8752*** AU
same,Cellular viability on NHDF (Optical density),[5],1.674 Optical density
